The subject of data set [1] is subjects with early manifest Huntington's disease. As to the kind of experiment: Cogstate Two Back Test (TWOB), working memory. The data set is classed as in vivo, human. Conditions: HD Subjects (Part B), 1 mg. The source says:
(§1) Sentinel dosing of subjects was employed for Cohort 3.
(§2) Cogstate Battery was used to assess cognitive functioning, such as attention, working memory, information processing speed, executive function, and motor skills, and consists of the Stop Signal Reaction Test (STOP), Detection Task (DET), Identification Task (IDN), One Back Learning Task (ONB), Two Back Learning Task (TWOB), and Groton Maze Learning Test (GML).
(§3) The endpoints for each Cogstate Battery tests are change from baseline scores at each post-baseline assessment.
(§4) Mean change from baseline scores at all post-baseline assessments were analyzed using mixed-effect repeated measure model (MMRM); with dose, visit, interaction between dose and visit as fixed effects, baseline as a covariate and subject as random effect. Unstructured covariance structure was used to model the variance-covariance matrix of the repeated measurements. If estimation issues arose during construction of covariance structure, compound symmetry was used in place of unstructured. The least square (LS) means differences between dose groups and placebo at each post baseline timepoint were estimated along with 95% confidence intervals.

Data set [2] has the same test system. Put plainly: Cogstate Groton Maze Learning Test (GML), executive function. The data set is classed as in vivo, human. Conditions: HD Subjects (Part B), 1 mg, all timepoints except for day 4.
Source text: as §1, §2, §3, §4

The test system of data set [3] is Patients with Huntington's Disease. Put plainly: Assessment of psychomotor speed (Psychomotor Vigilance Task Test, FIG. 5). The data set is classed as in vivo, human. The following applies: patients with HD, 1 mg. The source says:
FIG. 5 depicts performance measured using the Psychomotor Vigilance Task Test in Patients with Huntington's Disease and Healthy Participants. Z-Transformed Change from Baseline to Day 14 (Mean±SE) is depicted.
(§5) Additional objectives included an assessment of changes in subject performance on cognitive tasks.

For the next data set, the system named is Patients with HD. As to the kind of experiment: Tests of executive functioning (Cogstate Battery). The data set is classed as in vivo, human. The following applies: 1 mg, FIGS. 1-4.
Source text: as §5, §2, §3

Data set [4] is described as follows: Phase 1 MAD study: safety and tolerability of Compound 1 Oral Solution.
Source text: Subjects were assigned sequentially to one of 3 cohorts. […] Cohorts 1 and 2 were divided into 4 sub-groups of 3 subjects. Each sub-group in Part A started dosing on Day 1 over the course of 4 consecutive days, with the remaining dosing days overlapping in a staggered fashion. A maximum of 3 Part A subjects per calendar day per site will begin treatment at Day 1.
The Screening Period began with the signing of the informed consent form (ICF) at the Screening Visit. An optional genetic sample was collected during screening. On Day −2 (Part A) or Day −1 (Part B), qualified subjects were admitted to the unit. Subjects were discharged from the unit on Day 17 after completion of all assessments, provided that the Investigator was satisfied that it is safe for the subject to be discharged. In total, the inpatient stay for Part A subjects was approximately 19 days, and approximately 18 days for Part B subjects. Subjects returned for a Follow-up Visit on Day 21 (±2 days), approximately one week after the end of treatment.
[5] abbreviates: healthy adults (0.5 mg or 1.0 mg) and subjects with early manifest HD, multiple oral doses.

For `C[C@H](CC[C@](C)(O)C(F)(F)F)[C@H]1CC[C@H]2[C@@H]3CC=C4C[C@@](C)(O)CC[C@]4(C)[C@H]3CC[C@]12C` [Compound 1], the “Performance on the two-back test vs baseline, statistical significance” value in data set [1] (Days 8-14, threshold p<0.05) is given as “significant improvement compared to baseline”. Further, the “Performance on the two-back test vs baseline” value in data set [1] (all timepoints after baseline) is “improvement in performance”. The “Performance in the GML test vs baseline” value in data set [2] is “improvement”. Also, the “Change from baseline on assessment of psychomotor speed” value in data set [3] is reported as “No changes from baseline were observed”. In the data set with Patients with HD, the “Change from baseline on tests of executive functioning” value is recorded as “improvements from baseline”. The “TEAEs in Part B” value in data set [4] (Part B, subjects with HD) was “No TEAEs were reported”. Besides, in data set [4] (setting [5]), the Deaths entry is reported as “No deaths were reported”, the “Serious AEs” value is reported as “No serious AEs were reported” and the “TEAEs leading to study withdrawal or treatment discontinuation” value was “No TEAEs leading to study withdrawal or treatment discontinuation were reported”. Moreover, in data set [4] (measured by C-SSRS), the “Suicidal ideation or suicidal behavior compared to baseline, C-SSRS” value is on record as “no signals for increased suicidal ideation or suicidal behavior”.

Values taken from US20250041317A1, “NEUROACTIVE STEROID FOR THE TREATMENT OF HUNTINGTON'S DISEASE” (SAGE THERAPEUTICS, INC., priority 2021, published 2025).
